# Literature values, collected in US20240115678A1, “PERSONALIZED […] CANCER THERAPY” (priority 2022, published 2024).
# B1: IL-12: stimulator of NK cells (protein, UniProt P29459 23-219; P29460 23-328, looked up)
# Interleukin-12 subunit alpha: RNLPVATPDPGMFPCLHHSQNLLRAVSNMLQKARQTLEFYPCTSEEIDHEDITKDKTSTVEACLPLELTKNESCLNSRETSFITNGSCLASRKTSFMMALCLSSIYEDLKMYQVEFKTMNAKLLMDPKRQIFLDQNMLAVIDELMQALNFNSETVPQKSSLEEPDFYKTKIKLCILLHAFRIRAVTIDRVMSYLNAS
# Interleukin-12 subunit beta: IWELKKDVYVVELDWYPDAPGEMVVLTCDTPEEDGITWTLDQSSEVLGSGKTLTIQVKEFGDAGQYTCHKGGEVLSHSLLLLHKKEDGIWSTDILKDQKEPKNKTFLRCEAKNYSGRFTCWWLTTISTDLTFSVKSSRGSSDPQGVTCGAATLSAERVRGDNKEYEYSVECQEDSACPAAEESLPIEVMVDAVHKLKYENYTSSFFIRDIIKPDPPKNLQLKPLKNSRQVEVSWEYPDTWSTPHSYFSLTFCVQVQGKSKREKKDRVFTDKTSATVICRKNASISVRAQDRYYSSSWSEWASVPCS
# Key:
# [1] = tested on: Treg cells
# [2] = tested on: ovarian cancer; details: whole trial
# [3] = tested on: HUVEC; details: in vitro
# [4] = tested on: battery of tumor cell lines; details: in vitro, combined with AA
# [5] = tested on: vascular cord formation; details: in vivo administration
# [6] = tested on: neuroblastoma, bladder cancer, pancreatic cancer, mesothelioma, hepatoma cells; details: in vitro
# [7] = tested on: human xenografted glioma, overian, and neuroblastoma cells; details: immune deficient animals
# [8] = tested on: dendritic cells
# [9] = tested on: hypoxia inducible factor (HIF)-1
# [10] = tested on: rat PAIII androgen-independent syngeneic prostate cancer cell line; details: daily intraperitoneal for 30 days, evaluation at day 40
# [11] = tested on: T cell, B cell and NK cells; details: high dose
# [12] = tested on: neovascularization
# [13] = tested on: S-180 sarcoma; details: parenteral administration
# [14] = tested on: murine TECs and normal ECs; details: with up-regulation of MDR1 mRNA
# [15] = tested on: NK cells; details: animal experiments
# [16] = tested on: human microvascular ECs
# [17] = tested on: monocytes derived from human peripheral blood
molecule,measurement,setting,value
O=P1(N(CCCl)CCCl)NCCCO1 (stereo not drawn) [cyclophosphamide],effect on Treg cells,[1],inhibit Treg cells
"bevacizumab plus chemotherapy: Bevacizumab (Avastin), antibody which binds VEGF, given with chemotherapy",median progression free survival (PFS),[2]; ovarian cancer patients,6.8 months
same,median OS,[2],16.6 months
same,HR for overall survival,"[2]; versus chemotherapy alone, 95 percent CI: 0.69, 1.14",0.89
Nc1ccn([C@@H]2O[C@H](CO)[C@@H](O)C2(F)F)c(=O)n1 [gemcitabine],effect on Treg cells,[1],inhibit Treg cells
"O=C1O[C@H]([C@@H](O)CO)C(O)=C1O [AA, ascorbic acid]",HUVEC proliferation,[3],inhibits
same,"cytotoxicity of Docetaxel, Epirubicin, Irinotecan and 5-FU",[4],Enhancement of cytotoxicity
same,vascular cord formation,[5],suppressed vascular cord formation
same,cytotoxic effects on cancer cells,[6],cytotoxic effects at pharmacologically achievable concentrations
same,inhibition of xenografted cells,[7],successful in vivo inhibition
same,T cell activating ability of dendritic cells,[8],inhibit
same,activation of HIF-1,[9],suppresses activation
same,pulmonary and lymphatic metastasis,[10],reduction in pulmonary and lymphatic metastasis
same,tumor growth,[10],significant inhibition of tumor growth
same,NK cytotoxic activity,[11],inhibits
same,IL-2 secretion,[11]; in vitro,inhibits
same,T cell and B cell proliferative responses,[11]; in vitro,inhibits
same,neovascularization,[12],suppressing neovascularization
same,"angiogenesis and pro-angiogenic factors bFGF, VEGF, and MMP-2",[13],suppression
same,tumor growth,[13],reduced tumor growth
CC(=O)O[C@H]1C(=O)[C@@]2(C)[C@H]([C@H](OC(=O)c3ccccc3)[C@]3(O)C[C@H](OC(=O)[C@H](O)[C@@H](NC(=O)c4ccccc4)c4ccccc4)C(C)=C1C3(C)C)[C@]1(OC(C)=O)CO[C@@H]1C[C@@H]2O [paclitaxel],resistance of TECs compared with normal ECs,[14],more resistant
Poly (IC),effect on Herceptin activity,[15],augmentation of Herceptin activity
COc1cc2nccc(Oc3ccc(NC(=O)Nc4ccc(F)cc4F)c(F)c3)c2cc1OC [Ki8751],tumor CM-induced MDR1 up-regulation,[16],blocked
CCOCc1nc2c(N)nc3ccccc3c2n1CC(C)(C)O [R-848],"FcgammaRI, FcgammaRIIa, and the common gamma-subunit",[17],upregulation
same,inhibitory FcgammaRIIb molecule,[17],profound downregulation
same,FcgammaR-mediated cytokine production,[17]; 12 hour exposure,increased
same,antibody-dependent cellular cytotoxicity by monocytes,[17]; 12 hour exposure,increased
arsenic trioxide,effect on Treg cells,[1],inhibit Treg cells
CC(C)[C@]12O[C@H]1[C@@H]1O[C@]13[C@]1(O[C@H]1C[C@H]1C4=C(CC[C@@]13C)C(=O)OC4)[C@@H]2O [triptolide],effect on Treg cells,[1],inhibit Treg cells
B1,effect on Herceptin activity,[15],augmentation of Herceptin activity
